{"source": "paper PMC3606118", "about": "“Salvianolic Acid A, a Novel Matrix Metalloproteinase-9 Inhibitor, Prevents Cardiac Remodeling in Spontaneously Hypertensive Rats” (PLoS ONE, 2013)", "key": {"[1]": {"assay": "Toxicological evaluation of SalA on SHR", "assay_type": "in vivo, SHR rats", "protocol": "(§1) 2-month old male SHR rats were given rodent chow containing 8% NaCl 4 weeks before SaA treatment to the end of the experiment. Rats were divided into four groups (20 per group) and were injected intraperitoneally with saline or SalA everyday at the indicated dose for 4 weeks. The four groups were named as SalA (0 mg/kg), SalA (2.5 mg/kg), SalA (5 mg/kg), SalA (10 mg/kg) basing on the dose of SalA, respectively.\nAfter ketamine-xylazine anesthesia (ketamine: xylazine, 60∶5 mg/kg, intramuscularly), heart, liver and kidney samples from experimental animals were fixed with 4% neutral-buffered paraformaldehyde for 24 h. Specimens were paraffin-embedded, sliced at 5 µm, and stained with haematoxylin and eosin. After staining, the sections were rinsed with distilled water, dehydrated, and mounted with Permount. Photomicrographs were taken using an Olympus BX51 microscope plus Olympus DP71 CCD camera (Olympus Corporation). Software Image-Pro Plus version 6.0 was used and approximately 150 cells per heart were measured to determine the average myocyte circumference. Paraffin-embedded slices were also stained with 0.1% picric sirius red (Sigma-Aldrich Inc, St Louis, USA) for fibrillar collagen. Collagen volume fraction (CVF) was expressed as a percentage of the total area of the field occupied by collagen staining."}, "[2]": {"tested_on": "neonatal cardiac fibroblast", "assay": "CCK-8 proliferation of neonatal cardiac fibroblast", "assay_type": "cell-based, Wistar rats", "conditions": "10 µmol/L SalA with MMP-9 CD, 24 h", "protocol": "Primary cardiac fibroblast was obtained from neonatal rats and National Institutes of Health (NIH) Guide for the Care and Use of Laboratory Animals was followed throughout. Wistar rats (2–4 day old) were sacrificed by cervical dislocation; ventricles were minced and digested with 0.1% trypsin at 37°C for 8 min. The liberated cells were collected by centrifugations; non-digested chunk materials were further digested in 0.1% trypsin for an additional 8 min. This digestion procedure was repeated 3–4 times. All the liberated cells were pelleted by centrifugation at 1,000 rpm for 10 min, re-suspended in DMEM containing 10% fetal bovine serum (FBS), and cultured in a 100-mm noncoated culture flask at 37°C with 5% CO2 for 2 h. Adherent cardiac fibroblasts were collected and maintained in DMEM supplemented with 10% FBS, 100 U/mL penicillin, 100 µg/mL streptomycin [12]. Cardiac fibroblasts were treated by vehicle (Con); 200 nmol/L MMP-9 CD (MMP-9); 200 nmol/L MMP-9 CD plus 1 µmol/L SalA [MMP-9/SalA(1)]; or 200 nmol/L MMP-9 CD plus 10 µmol/L SalA [MMP-9/SalA(10)] for the following research. All the detections were conducted after 24 h treatment.\nCell proliferation assay was performed using Cell Counting Kit (CCK-8 kit, Dojindo Laboratory, Japan) as described previously. Absorbance was detected at 450 nm (reference 650 nm) using a microplate reader (Tecan GENios, Austria)."}, "[3]": {"tested_on": "H9c2 cells overexpressing MMP-9 (pDEST-MMP9)", "assay": "Transwell migration of H9c2 cells overexpressing MMP-9", "assay_type": "cell-based, Rat", "conditions": "pDEST-MMP9 untreated 157.4±10.2, pDEST 74.6±8.9", "protocol": "Transwell assay was employed to evaluate effects of SalA on neonatal cardiac fibroblast migration induced by MMP-9 CD. Twenty thousand cells in 200 µL culture medium containing various concentrations of SalA were loaded onto PET track-etched membrane in modified Boyden chambers (BD Falcon Cell Culture Insert, BD), and same medium containing MMP-9 CD (200 nmol/L) was added to the lower side of the migration chamber. After incubating for 24 h, migrated cells (in the lower side of migration chamber) were stained with 0.1% crystal violet and counted with a microscope at 200 X magnification. Five to six view fields were counted on each membrane. Migration is expressed as the mean value of total number of migrated cells per field. DNA cloning using Gateway technology was carried out according to manufacturer’s instructions. Full-length MMP-9 cDNA (MGC-12688) was first subcloned into entry vector pDONR^TM221, followed by recombination reaction between the attL-containing pDONR^TM221 vector and attR-containing destination pDEST vector (Invitrogen, Carlsbad, CA, USA). […] Stable H9c2 cell line was generated by selection with 2 mg/mL G418 (denoted as pDEST-MMP9) and maintained in 0.75 mg/mL G418, and expression of MMP-9 was evaluated using zymography assay. […]"}, "MMP-9": {"target": "T1, MMP-9 (Rattus norvegicus, UniProt P50282)", "T1 construct": "twenty µg protein from tissue; from tissue; host or cells: heart of spontaneously hypertensive rats (SHR)", "T1 sequence (P50282 108-708)": "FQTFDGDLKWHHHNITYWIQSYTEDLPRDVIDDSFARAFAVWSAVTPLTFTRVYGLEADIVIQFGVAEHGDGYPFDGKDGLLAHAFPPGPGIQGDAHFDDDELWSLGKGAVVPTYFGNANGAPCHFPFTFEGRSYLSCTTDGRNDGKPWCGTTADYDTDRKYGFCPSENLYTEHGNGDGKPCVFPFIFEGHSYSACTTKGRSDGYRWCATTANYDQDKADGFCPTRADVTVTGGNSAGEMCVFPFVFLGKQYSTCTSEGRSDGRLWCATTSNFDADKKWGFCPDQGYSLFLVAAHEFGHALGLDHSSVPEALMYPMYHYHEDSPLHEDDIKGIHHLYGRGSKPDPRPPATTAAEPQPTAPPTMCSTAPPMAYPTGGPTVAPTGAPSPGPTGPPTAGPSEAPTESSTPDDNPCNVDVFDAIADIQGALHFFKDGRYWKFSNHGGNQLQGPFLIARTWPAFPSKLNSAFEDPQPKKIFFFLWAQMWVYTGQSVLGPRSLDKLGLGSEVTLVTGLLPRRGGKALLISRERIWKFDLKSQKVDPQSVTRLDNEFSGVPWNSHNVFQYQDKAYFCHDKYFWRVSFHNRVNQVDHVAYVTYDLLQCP", "assay": "In-gel gelatin zymography of SHR heart, MMP-9", "assay_type": "in vivo, SHR rats", "conditions": "SalA i.p. everyday for 4 weeks", "protocol": "The enzymatic activities of H9c2 cells or tissue samples were detected by in-gel gelatin zymography. In brief, twenty µg protein from tissue or twenty microliter culture supernatant of H9c2 cells with different treatments was electrophoresed in 10% SDS-PAGE containing 1% gelatin as MMP substrate under non-reducing conditions. After electrophoresis, the gel was washed in 1% Triton X-100 for 1 h, rinsed in water, and incubated overnight in substrate buffer containing 50 mmol/L Tris-HCl, 5 mmol/L CaCl2, and 150 mmol/L NaCl (pH 7.5) at 37°C with gentle shaking. Then, the gel was stained in 0.1% Coomassie Blue R-250 and destained using 10% methanol, 5% acetic acid solution. The gel was scanned using a MiniBis system (DNR Bio-Imaging Systems Ltd) and the detected protein species corresponding to the expected molecular weight of MMP-9 was visualized.\nas §1"}}}
{"smiles": "O=C(/C=C/c1ccc(O)c(O)c1/C=C/c1ccc(O)c(O)c1)O[C@H](Cc1ccc(O)c(O)c1)C(=O)O", "note": "[SalA, salvianolic acid A]", "values": [{"measurement": "signs of toxicity or mortality", "setting": "[1]; intraperitoneally administered to rats for 1 month", "value": "failed to induce any signs of toxicity or mortality"}, {"measurement": "body weight, food consumption", "setting": "[1]; rat, in vivo, 10 mg/kg", "value": "no changes"}, {"measurement": "proliferation of neonatal cardiac fibroblast", "setting": "[2]", "value": "considerable promotion"}, {"measurement": "migrated cells", "setting": "[3]; 1 µmol/L SalA", "value": "84.4±17.0", "unit": "cells per field"}, {"measurement": "migrated cells", "setting": "[3]; 10 µmol/L SalA", "value": "42.3±8.9", "unit": "cells per field"}, {"measurement": "MMP-9 activity in heart of SHRs", "setting": "MMP-9", "value": "inhibited by SalA significantly"}]}
